According to patent publication US20250241848A1 (priority 2011, published 2025):

The compounds below were run on axillary sweat production. Conditions: human, in vivo.

| Compound | greater effectiveness in reducing sweat production than placebo | greater reduction in sweat production than the subjects in the control group | reduction in sweat production (on average) | subjects with at least a 30% reduction in sweat production compared to Baseline visit |
| --- | --- | --- | --- | --- |
| CCCOC(=O)c1ccc(O)cc1 [Propylparaben] | 245% | 337% | 177 mg | 70% |
| CCCCCCCCCCCCCC(=O)OC(C)C [Isopropyl Myristate] | 191% | 195% | 103 mg | 55% |
| Polysorbate 80 | 280% | 300% | 159 mg | 80% |
